The results in this text go back to EP2487171A1, “Dihydrobenzopyran, thiochroman, tetrahydroquinoleine and tetrahydronaphthalene derivatives and their use in anti-cancer therapy” (Université de Liège, priority 2011, dated 2012).

The subject of test [1] is human U373 glioma cell line. The experiment in a line: Quantitative videomicroscopy (computer-assisted phase-contrast microscopy). It is filed as cell-based. Conditions: U373 cells treated at the IC50 concentration from MTT, filmed for 72h; cytostatic versus cytotoxic effects. An excerpt: In addition, the inventors could establish that the compounds of the invention act through a non-apoptosis-related mechanism thanks to a unique experimental approach used by the inventors, i.e. computer-assisted phase-contrast microscopy (quantitative videomicroscopy), making them good candidates as anti-cancer drugs for treating apoptosis-resistant tumor or cancer cells and for overcoming problems linked to the known anti-cancer drugs.
As the MTT test is based on the mitochondria functions, we also investigated the effects of the compounds according to the invention on cell proliferation, migration and morphology by means of a cellular imaging approach (Debeir et al., Cytometry 60:29-40, 2004; Debeir et al., IEEE Trans Med Imaging 24:697-711, 2005) in the human U373 glioma cell line, which is apoptosis-resistant but autophagy-sensitive (Lefranc F et al., Neurosurgery 2008).
Cellular imaging relied on the use of computer-assisted phase-contrast microscopy making possible to film the behaviour of living cells in culture dishes for several days.
Cells were seeded in a 25-cm^2 flask at a low density, treated or not with the compounds of the invention (at their IC50 concentration determined previously by MTT tests) and filmed thereafter for a period of 72h. The experiment was conducted in triplicate.
The behaviour of the cells, in terms of morphology, growth and death were thus investigated. The effect on the overall growth was measured by counting the number of cells on the first (0h) and the last image (72h) of each film. The global growth ratio (GGR) was then deduced by dividing the number of cells on the last image by the number of cells on the first image. The ratio GGRtreated cells / GGRcontrol cells, was further calculated thereby obtaining a value that describes the effect of compounds of the present invention on the overall cell growth.
The methodology is fully described and validated in Debeir et al., 2008, Exp Cell Res 314:2985-2998 and Mathieu et al., 2009, J Cell Mol Med, Feb 20, 2009.
Thanks to the quantitative videomicroscopy (QVM) approach, we classified the compounds into 4 distinctive classes on the basis of their cytostatic versus cytotoxic effects (Table 3). • Class I: actually cytostatic for 3 days (< 10 % of cell death at the 3rd day) • Class II: cytostatic but becomes cytotoxic with < 10% cell death on the 2nd day and > 20% of cell death on the 3rd day • Class III: cytostatic but rapidly becomes cytotoxic with < 10% cell death on the 1st day, > 20% of cell death on the 2nd day and > 50% of cell death on the 3rd day • Class IV: cytotoxic (> 50% of cell death on the first day)
In Fig. 1a, compounds of example 14 (5 µM), example 19 (20 µM) and example 23 (5 µM) belong to QVM Class I because they display cytostatic effects on human U373 GBM cells during the whole duration of the experiment. Cytostatic effects mean that < 10 % of cell death was recorded at the end of the experiment, i.e. at the end of the 3rd day. QVM analyses enable the global growth ratio (GGR) to be calculated in each experiment. The GGR index is obtained by dividing the number of cells in the last image by the number of cells in the first image of the experiment, knowing that 1080 images are taken during the 72 h-period of observation. The ratio GGR^treated cells / GGR^control cells was further calculated thereby obtaining a value that describes the effect of compounds on the overall cell growth. Thus, a GGR index of 0.2 means that they remain only 20% of treated cells compare to the control cells at the end of the experiment.

The next test deals with U373. The test can be described thus: MTT colorimetric assay, overall cell growth. Format: cell-based. Conditions: Homo sapiens, U373 MG; U373 cells, 72 hours of incubation; read-out: IC50 (µM) In Vitro Growth Inhibitory Concentrations (MTT Colorimetric Assay) U373.
Another test deals with T98G. The test can be described thus: MTT colorimetric assay, overall cell growth. The conditions noted are these: Homo sapiens, 72 h, read-out: IC50 (µM) In Vitro Growth Inhibitory Concentrations (MTT Colorimetric Assay) T98G.
The next test deals with Hs683. The experiment in a line: MTT colorimetric assay, overall cell growth. Format: cell-based. The conditions noted are these: Homo sapiens, Hs 683; Hs683 cells, 72 hours of incubation; read-out: IC50 (µM) In Vitro Growth Inhibitory Concentrations (MTT Colorimetric Assay) Hs683. A general note: Tetrazolium dyes change colour on reduction, which living cells bring about.

Description for Hs683: The compounds and particularly dihydrobenzopyran, thiochroman, tetrahydroquinoleine and tetrahydronaphthalene derivatives of the invention were evaluated for their anti-proliferative effect (by means of the colorimetric MTT assay), in the following human glioblastoma cell-lines U373, T98G and Hs683 and in the mouse glioma cell line GL261. Normal brain cells (primocultures from newborn mice) were also used in order to determine the bioselectivity (B^N/C) of the compounds of interest, i.e. the ratio between the concentrations that inhibits 50% of the growth of brain cancer (C) cells (glioma cells) and the concentration that inhibits 50% of the growth of normal (N) brain cells (primocultures of astrocytes). The ideal situation to be reached is a bioselectivity of B^N/C > 10.
(§1) MTT tests were performed in order to rapidly, i.e. within 5 days, measure the effect of compounds of this invention on the overall cell growth. The test measured the number of metabolically active living cells that were able to transform the yellow product 3-(4,5-dimethylthiazol-2-yl)-2,5-diphenyl tetrazolium bromide (herein referred as MTT) into the blue product formazan dye by mitochondrial reduction. The amount of formazan obtained at the end of the experiment, measured by means of a spectrophotometer, is directly proportional to the number of living cells. Optical density determination thus enabled a quantitative measurement of the effect of the investigated compounds as compared to the control condition (untreated cells) and/or to other reference compounds.
(§2) Three human cancer cell lines were used in the following MTT tests.
(§3) To perform the assay, cells were allowed to grow in 96-well micro-wells with a flat bottom with an amount of 100 µl of cell suspension per well with 1,000 to 8,000 cells/well depending on the cell type used. Each cell line was seeded in its appropriate culture medium.
(§4) The detailed experimental procedure was the following: after a 24-hour period of incubation at 37°C, the culture medium was replaced by 100 µl of fresh medium in which the tested compound was previously dissolved, at the following molar concentrations: 10^-8 M, 5.10^-8 M, 10^-7 M, 5.10^-7 M, 10^-6 M, 5.10^-6 M, 10^-5 M, 5.10^-5 M and 10^-4 M. Each experiment was performed in sextuplicate (6 times).
After 72 hours of incubation at 37°C with (experimental conditions) or without (control condition) the compound to be tested, the medium was replaced by 100 µl MTT dissolved in RPMI (1640 without phenol red) at a concentration of 0.5 mg/ml. The micro-wells were subsequently incubated during 3 hours and a half at 37°C and centrifuged at 1300 rpm during 10 minutes. MTT was removed and formazan crystals formed were dissolved in 100 µl DMSO. The micro-wells were shaken for 5 minutes and read on a spectrophotometer at wavelengths of 570 nm (maximal formazan absorbance).
(§5) For each experimental condition, the mean optical density was calculated, allowing the determination of the percentage of remaining living cells in comparison to the control.
Description for T98G: The compounds and particularly dihydrobenzopyran, thiochroman, tetrahydroquinoleine and tetrahydronaphthalene derivatives of the invention were evaluated for their anti-proliferative effect (by means of the colorimetric MTT assay), in the following human glioblastoma cell-lines U373, T98G and Hs683 and in the mouse glioma cell line GL261. Normal brain cells (primocultures from newborn mice) were also used in order to determine the bioselectivity (B^N/C) of the compounds of interest, i.e. the ratio between the concentrations that inhibits 50% of the growth of brain cancer (C) cells (glioma cells) and the concentration that inhibits 50% of the growth of normal (N) brain cells (primocultures of astrocytes).
as §1, §2, §3, §4
The micro-wells were subsequently incubated during 3 hours and a half at 37°C and centrifuged at 1300 rpm during 10 minutes. MTT was removed and formazan crystals formed were dissolved in 100 µl DMSO. The micro-wells were shaken for 5 minutes and read on a spectrophotometer at wavelengths of 570 nm (maximal formazan absorbance).
as §5

Take `CC(C)(C)OC(=O)Nc1ccc2c(c1)C(NC(=O)Nc1ccc(Cl)cc1)CC(C)(C)O2` (racemic) [Example 17, R/S-N-4-chlorophenyl-N'-(6-tert-butoxycarbonylamino-3,4-dihydro-2,2-dimethyl-2H-1-benzopyran-4-yl)urea]: in test [1], the “QVM Class” value is “III (Class III: cytostatic but rapidly becomes cytotoxic with < 10% cell death on the 1st day, > 20% of cell death on the 2nd day and > 50% of cell death on the 3rd day)”. The IC50 with U373 is 22 µM; in the test on T98G, 26 µM; with Hs683, 26 µM.
As for `CC(C)(C)OC(=O)Nc1ccc2c(c1)C(NC(=O)Nc1ccc(F)cc1)CC(C)(C)O2` (racemic) [Example 18, R/S-N-4-fluorophenyl-N'-(6-tert-butoxycarbonylamino-3,4-dihydro-2,2-dimethyl-2H-1-benzopyran-4-yl)urea], the “QVM Class” value in test [1] was “I (Class I: actually cytostatic for 3 days (< 10 % of cell death at the 3rd day))”. Besides, the IC50 with U373 is 30 µM; with T98G, 33 µM; with Hs683, 35 µM.
The matching figures for `CC(C)(C)OC(=O)Nc1ccc2c(c1)C(NC(=O)Nc1cccc(F)c1)CC(C)(C)O2` (racemic) [Example 19, R/S-N-3-fluorophenyl-N'-(6-tert-butoxycarbonylamino-3,4-dihydro-2,2-dimethyl-2H-1-benzopyran-4-yl)urea]: “I (Class I: actually cytostatic for 3 days (< 10 % of cell death at the 3rd day))”, 20 µM, 26 µM and 19 µM.
Regarding `CC(C)(C)OC(=O)Nc1ccc2c(c1)C(NC(=O)Nc1cccc(Br)c1)CC(C)(C)O2` (racemic) [Example 20, R/S-N-3-bromophenyl-N'-(6-tert-butoxycarbonylamino-3,4-dihydro-2,2-dimethyl-2H-1-benzopyran-4-yl)urea], the “QVM Class” value in test [1] is “III (Class III: cytostatic but rapidly becomes cytotoxic with < 10% cell death on the 1st day, > 20% of cell death on the 2nd day and > 50% of cell death on the 3rd day)”. Besides, the IC50 was found to be 22 µM in the test with U373, 26 µM with T98G and 18 µM with Hs683.
For the compound `CC(C)(C)OC(=O)Nc1ccc2c(c1)C(NC(=O)Nc1ccc([N+](=O)[O-])cc1)CC(C)(C)O2` (racemic) [Example 22, R/S-N-4-nitrophenyl-N'-(6-tert-butoxycarbonylamino-3,4-dihydro-2,2-dimethyl-2H-1-benzopyran-4-yl)urea], the “QVM Class” value in test [1] is “IV (Class IV: cytotoxic (> 50% of cell death on the first day))”. The results for the IC50 in the test with U373, with T98G and in the test on Hs683 were 24 µM, 26 µM and 20 µM, respectively.
On the same counts, the results for `CC(C)(C)OC(=O)Nc1ccc2c(c1)C(NC(=O)Nc1ccccc1[N+](=O)[O-])CC(C)(C)O2` (racemic) [Example 27, R/S-N-2-nitrophenyl-N'-(6-tert-butoxycarbonylamino-3,4-dihydro-2,2-dimethyl-2H-1-benzopyran-4-yl)urea] are “I (Class I: actually cytostatic for 3 days (< 10 % of cell death at the 3rd day))”, 12 µM, 22 µM and 13 µM.
`CC(C)(C)OC(=O)Nc1ccc2c(c1)C(NC(=O)Nc1ccc(C(F)(F)F)cc1Cl)CC(C)(C)O2` (racemic) [Example 30, R/S-N-2-chloro-4-trifluoromethylphenyl-N'-(6-tert-butoxycarbonylamino-3,4-dihydro-2,2-dimethyl-2H-1-benzopyran-4-yl)urea]: the “QVM Class” value in test [1] was “II (Class II: cytostatic but becomes cytotoxic with < 10% cell death on the 2nd day and > 20% of cell death on the 3rd day)”. In addition, the IC50 was 26 µM in the test on U373, 34 µM in the test with T98G and 25 µM in the test on Hs683.
Regarding `CC(C)(C)OC(=O)Nc1ccc2c(c1)C(NC(=O)Nc1cc(C(F)(F)F)ccc1Cl)CC(C)(C)O2` (racemic) [Example 31, R/S-N-2-chloro-5-trifluoromethylphenyl-N'-(6-tert-butoxycarbonylamino-3,4-dihydro-2,2-dimethyl-2H-1-benzopyran-4-yl)urea], the “QVM Class” value in test [1] is “II (Class II: cytostatic but becomes cytotoxic with < 10% cell death on the 2nd day and > 20% of cell death on the 3rd day)”. Also, the IC50 with U373 was 15 µM; in the test with T98G it was 38 µM; in the test with Hs683 it was 12 µM.
Turning to `CC(C)(C)OC(=O)Nc1ccc2c(c1)C(NC(=O)Nc1c(Cl)cccc1C(F)(F)F)CC(C)(C)O2` (racemic) [Example 32, R/S-N-2-chloro-6-trifluoromethylphenyl-N'-(6-tert-butoxycarbonylamino-3,4-dihydro-2,2-dimethyl-2H-1-benzopyran-4-yl)urea], the “QVM Class” value in test [1] is “III (Class III: cytostatic but rapidly becomes cytotoxic with < 10% cell death on the 1st day, > 20% of cell death on the 2nd day and > 50% of cell death on the 3rd day)”. Besides, the IC50 in the test on U373 stood at 60 µM; in the test with T98G, 60 µM; with Hs683, 66 µM.
With `CC(C)(C)OC(=O)Nc1ccc2c(c1)C(NC(=O)Nc1ccc(Cl)c(C(F)(F)F)c1)CC(C)(C)O2` (racemic) [Example 33, R/S-N-4-chloro-3-trifluoromethylphenyl-N'-(6-tert-butoxycarbonylamino-3,4-dihydro-2,2-dimethyl-2H-1-benzopyran-4-yl)urea], the “QVM Class” value in test [1] was “III (Class III: cytostatic but rapidly becomes cytotoxic with < 10% cell death on the 1st day, > 20% of cell death on the 2nd day and > 50% of cell death on the 3rd day)”. Also, the IC50 with U373 was 21 µM; in the test on T98G, 23 µM; in the test with Hs683, 22 µM.
As to `CC(C)(C)OC(=O)Nc1ccc2c(c1)C(NC(=O)Nc1ccc(Br)cc1)CC(C)(C)O2` (racemic) [Example 34, R/S-N-4-bromophenyl-N'-(6-tert-butoxycarbonylamino-3,4-dihydro-2,2-dimethyl-2H-1-benzopyran-4-yl)urea], the “QVM Class” value in test [1] was “III (Class III: cytostatic but rapidly becomes cytotoxic with < 10% cell death on the 1st day, > 20% of cell death on the 2nd day and > 50% of cell death on the 3rd day)”. The IC50 came to 22 µM in the test with U373, 21 µM in the test on T98G and 21 µM in the test with Hs683.
With `CC(C)(C)OC(=O)Nc1ccc2c(c1)C(NC(=O)Nc1ccccc1C#N)CC(C)(C)O2` (racemic) [Example 36, R/S-N-2-cyanophenyl-N'-(6-tert-butoxycarbonylamino-3,4-dihydro-2,2-dimethyl-2H-1-benzopyran-4-yl)urea], the “QVM Class” value in test [1] is reported as “I (Class I: actually cytostatic for 3 days (< 10 % of cell death at the 3rd day))”. The IC50 in the test with U373 amounted to 45 µM; in the test on T98G it was 67 µM; with Hs683, 54 µM.
For `CC(C)(C)OC(=O)Nc1ccc2c(c1)C(NC(=O)Nc1ccc(Cl)cc1C(F)(F)F)CC(C)(C)O2` (racemic) [Example 37, R/S-N-4-chloro-2-trifluoromethylphenyl-N'-(6-tert-butoxycarbonylamino-3,4-dihydro-2,2-dimethyl-2H-1-benzopyran-4-yl)urea], the “QVM Class” value in test [1] is “II (Class II: cytostatic but becomes cytotoxic with < 10% cell death on the 2nd day and > 20% of cell death on the 3rd day)”. Also, the IC50 is 34 µM in the test with U373, 38 µM with T98G and 30 µM in the test on Hs683.
